Experiment: Odour threshold concentration by using an olfactometer
Settings: for Odour threshold concentration, geometric mean: olfactometer, forced-choice triangle presentation, group of 12 panelists, both compounds measured on the same day under identical conditions; for odour threshold concentration, times lower compared to 6-methoxy-2,6-dimethylheptanal (Methoxymelonal): ratio of the geometric mean thresholds vs the prior-art compound
Text: The odour threshold concentration is defined as the lowest concentration of the vapour of an odorous material in the air which can be detected by smell. The concentration can be measured by standard methods known in the art by using either olfactometry means or sniff-bottles allowing panelists to smell the presented headspace.
The olfactometer functions on the principle of a linear dilution of an odorant in a carrier gas. The quantity of odorant displaced depends on its vapour pressure and the carrier gas flow. A constant flow of nitrogen, regulated by a flow regulator, carries the odorant from a sample container to a mixing chamber. There, the carrier gas-odour mixture is diluted with odourless air. From the mixing chamber one part of the diluted odorous air is allowed to flow via a fused silica capillary to the sniffing funnel. The flow rate through the capillary, which determines the dosage of odorous air from the mixing chamber into the sniffing funnel, depends on the opening of the valve which can be regulated via PC from 1 to 256 ml in binary steps. The final dilution of the odorous air sample occurs in the glass funnel by flushing them permanently with odourless air at a flow rate of 8 L/min. Forced-choice triangle presentation is achieved by a special automated channel setting device where only in one position of a switch the odorant delivering capillary enters in the sniffing funnel, whereas in the two other positions the capillary is positioned outside the funnel and where the effluent is sucked away. After each trial the channel setting is changed automatically and in a random order. The concentration is calculated from the odorants vapour pressure and from the dilution ratios that were applied in the olfactometer, assuming that vapour saturation is achieved in the sample generator. As a control the concentration was by sampling a known volume from the capillary effluent into a headspace filter and then determined. The panelist starts sniffing at the olfactometer at a concentration level at which he perceives the odorant at medium intensity. After three correct answers in three consecutive trials (or four correct ones of five trials) at the same level, stimulus concentration is decreased by a factor of two to the next lower level, and so on, until the panelist has reached his threshold level.
Under identical conditions the odour threshold concentration for 6-methoxy-2,6-dimethyloctanal and 6-methoxy-2,6-dimethylheptanal was measured and compared by a group of 12 panelists. The sequence with which of the two compounds the panelist started smelling was alternated. Both compounds were measured on the same day and the following data were obtained: […]

Row | Compound | Odour threshold concentration, geometric mean [ng/L] | odour threshold concentration, times lower compared to 6-methoxy-2,6-dimethylheptanal (Methoxymelonal) | odour threshold concentration, times lower compared to 6-methoxy-2,6-dimethylheptanal (Methoxymelonal) (listed as compound of the present invention) [times]
1 | COC(C)(C)CCCC(C)C=O (stereo not shown) [6-methoxy-2,6-dimethylheptanal, reference compound] | 1.92 |  | 
2 | CCC(C)(CCCC(C)C=O)OC (stereo not shown) [6-methoxy-2,6-dimethyloctanal] | 0.78 | about 2.5 times | 2.46

From patent US7790668B2, “2-methoxy-2,6-dimethyloctanal and its use as a fragrance ingredient” (Givaudan SA, priority 2005, dated 2010)
